Experiments:
[1] = test system: calf thymus DNA (ct-DNA); assay: UV-Vis absorption titration with ct-DNA; type: binding; conditions: as restated in the discussion
Method: Stock solutions of calf thymus DNA (ct-DNA) (Sigma–Aldrich) were prepared by dissolving the DNA powder overnight in 10 mM Tris–HCl pH 7.4, 10 mM NaCl and incubated under stirrer at 4°C for 12h. […] The concentration of the ct-DNA solution was determined by UV absorbance at 260 nm. The molar absorption coefficient at 260 nm, was taken as 6,600 M^−1 cm^−1 (Marmur, [1961]). Stock solutions of gold(I) complexes (compounds 5 and 6) were prepared in DMSO. Absorption titration experiments performed with fixed concentrations of the different gold(I) complexes (25 μM, in 10 mM Tris–HCl pH 7.4, 10 mM NaCl), gradually increasing the concentration of DNA. After addition of DNA to the compounds, the resulting solution was allowed to […] equilibrate at room temperature for 5 min. Then, the sample solution was scanned in the range 220–600 nm. For the different compounds the binding constant (Kb) was determined from the spectroscopic titration data using the following equation
[DNA]/(εa-εf)=[DNA]/(εb-εf)+1/Kb(εb-εf),Equation 1
where [DNA] is the concentration of DNA in base pairs, the apparent absorption coefficient (εa) was obtained by calculating Aobsd/[compound]. The terms εf and εb correspond to the extinction coefficient of free (unbound) and the fully bound compound, respectively. A plot of [DNA]/(εa-εf) vs. [DNA] will give a slope 1/(εb-εf) and an intercept 1/Kb(εb-εf). […]

[2] = target: T1, dihydrofolate reductase (DHFR) (Homo sapiens, UniProt P00374); assay: DHFR specific enzymatic activity in lysates of treated MDA-MB231 cells; type: cell-based; conditions: 8 μM (maximum inhibition)
T1 construct: Cell lysates were collected using Cell Culture Lysis Reagent; endogenous in cells; host or cells: MDA-MB231 and SKBR3 (human breast cancer cells)
T1 sequence (P00374 1-187): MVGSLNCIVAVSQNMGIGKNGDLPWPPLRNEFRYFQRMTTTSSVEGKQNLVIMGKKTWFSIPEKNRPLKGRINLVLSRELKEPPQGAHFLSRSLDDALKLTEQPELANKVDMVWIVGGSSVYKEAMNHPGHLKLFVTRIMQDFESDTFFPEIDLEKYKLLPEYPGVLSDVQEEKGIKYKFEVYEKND
Method: SKBR3, MDA-MB-231 and A17 cells were plated onto 100 mm cell culture dishes (2 × 10^6 cells/ dish). The day after, cells were treated with vehicle alone (DMSO) as control or increasing concentrations of compound 5 and compound 6 in DMEM supplemented with 2% FBS (Invitrogen, Carlsbad, CA) for 4 h or 12 h. Representative pictures of cells treated with compound 5 or 6 at the indicated concentration for 4 or 12 h just before to take cell lysates for the enzymatic tests are reported as supplemental files. Cell lysates were collected using Cell Culture Lysis Reagent (Promega, Madison, WI) supplemented with BSA (1%) and protease inhibitors. DHFR activity was assessed by spectrophotometric assay as reported elsewhere (Wang et al., [2020]) in which the reaction rate was followed by recording the decreasing absorbance at 340 nm due to oxidation of NADPH to NADP^+, using a Shimadzu UV-2450 spectrophotometer. When necessary, because of low protein content in the lysates, the DHFR enzymatic activity was measured by a discontinuous direct HPLC assay using an Agilent 1100 system. HPLC-DAD (Agilent 1100) was used to detect and quantify the presence of NADP^+, as one of the products of DHFR catalyzed reaction, in cell lysates. Fifty microliter of the cell lysate were incubated at 37°C in a reaction mixture containing 760 μl of buffer (0.05 M Hepes pH 7.3), 20 μl of NADPH 4 mM, and 20 μl of dihydrofolate (H2F) 4 mM. The samples for HPLC analysis were prepared as follows: 50 μl aliquots of each mixture were stopped at different times (0, 5, 10, 20, 30, and 60 min) by adding 25 μl of HClO4 1.2 M; after 10 min on ice and centrifugation for 5 min at 12,000 g, 60 μl of each supernatant were neutralized by adding 17.5 μl of K2CO3 0.79 M, kept on ice and centrifuged again. Fifty microliter of the supernatant obtained were directly injected into the reversed phase column for separations of reagents and products of the enzyme catalyzed reaction. The column used is a Supelcosil LC RP 18 (4.6 × 250 mm) with pre-column SupelGuard. The HPLC settings are the same reported in Wang et al. ([2020]). The amounts of product (NADP^+) were determined from the peak areas of the HPLC-separated compounds with reference to appropriate standards. One enzyme unit is defined as the amount of enzyme which catalyzes the reduction of 1 μmol of dihydrofolate, per minute, at 37°C. Enzyme activities were normalized by the protein content, determined by the Bradford assay (Bradford, [1976]).

[3] = MDA-MB231, 4 h treatment, control 5.38 ± 0.38
[4] = MDA-MB231, 12 h treatment, control 0.64 ± 0.02

Substance | binding constant with ct-DNA [1] [mM⁻¹] | Specific enzymatic activity of DHFR [2, 3] [mU/mg] | Specific enzymatic activity of DHFR [2, 4] [mU/mg]
4,5-dichloro-imidazolate-1yl-gold(I)-(triphenylphosphane) [Compound 6] | 3.44 | 1.75 ± 0.34 | 0.55 ± 0.002
4,5-dicyano-imidazolate-1yl-gold(I)-(triphenylphosphane) [Compound 5] | 1.46 | 2.37 ±0.39 | 0.42 ± 0.01

— publication PMC7821381, “Multi-Targeted Anticancer Activity of Imidazolate Phosphane Gold(I) Compounds by Inhibition of DHFR and TrxR in Breast Cancer Cells” (Frontiers in Chemistry, 2021)
